The values that follow come from paper PMC10644391, “Targeted Reversible Covalent Modification of a Noncatalytic Lysine of the Krev Interaction Trapped 1 Protein Enables Site-Directed Screening for Protein–Protein Interaction Inhibitors” (ACS Pharmacology & Translational Science, 2023).

A short description of data set [1]: pKa by potentiometric titration (Sirius T3). The format is physicochemical. As to conditions: potentiometric titrations, means ± SD of three titrations.
For the next data set, the target named is T1, HEG1-KRIT1 PPI (Homo sapiens, UniProt O00522).
T1 construct: a recombinant FERM domain (residues 417–736) of KRIT1; made in house; host or cells: E. coli
T1 sequence (O00522 417-736): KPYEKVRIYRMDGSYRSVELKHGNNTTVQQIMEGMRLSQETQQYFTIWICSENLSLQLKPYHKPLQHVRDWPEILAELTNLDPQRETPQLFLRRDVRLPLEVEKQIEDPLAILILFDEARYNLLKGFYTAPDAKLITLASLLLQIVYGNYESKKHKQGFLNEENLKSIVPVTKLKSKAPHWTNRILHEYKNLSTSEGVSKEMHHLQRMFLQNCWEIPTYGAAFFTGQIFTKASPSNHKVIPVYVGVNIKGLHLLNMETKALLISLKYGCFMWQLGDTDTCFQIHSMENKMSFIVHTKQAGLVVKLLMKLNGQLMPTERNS
In words: HEG1-KRIT1 PPI fluorescence polarization (FP) time-resolved assay. The data set is classed as biochemical. As to conditions: means ± SD, n = 3; for IC50: fluorescence polarization assay after 4 h of incubation; for HEG1-KRIT1 PPI Assay kon / koff: global fit across six or more inhibitor concentrations; for Ki: global fit, unit in Figure 2E, read-out: HEG1-KRIT1 PPI Assay Ki (koff/kon). As to the method:
To evaluate the binding kinetics of HNA inhibitors, a fluorescence polarization (FP) time-resolved assay that uses a recombinant FERM domain (residues 417–736) of KRIT1 and a fluorescence-tagged HEG1 cytoplasmic tail (Cy5-HEG1 7-mer peptide) was developed (Supporting Information). Using HNA as a test compound, the FP data, expressed as millipolarization (mP) units, were obtained every 10 min over the course of 4–7 h. […] Thus, for practical purposes, a 4-h incubation time was established as the standard assay time for non-kinetic IC50 evaluations.
Fluorescence Polarization Assay and Optimization
The KRIT1 FERM domain (residues 417-736) was cloned into plasmid and recombinantly expressed in E. coli as previously described,1 while the Cy5-HEG1 7- mer peptide bearing the Cy5 dye as fluorescent probe was prepared by and purchased from GenScript (New Jersey, US). HEPES- buffered saline (HBS) buffer was supplemented (0.01%) with detergent Triton X -100 to minimize protein adsorption to the microplate. The assay was setup in a 96-well plate plated with 80 nM KRIT1, 4 nM Cy5- HEG1 probe, and either non-tagged HEG1 peptide or HNA as inhibitor (in 5% DMSO). To account for background fluorescence that could interfere with the assay, background wells with only test compound and Cy5 -HEG1 probe (no KRIT1) were also plated. The FP data, expressed as millipolarization (mP) units, were obtained […]
course of 4-7 hours (for kinetic characterization) using a Tecan Spark® Multimode Microplate Reader. The background mP (no KRIT1) was subtracted from mP to account for background fluorescence. All assays were done in triplicates.
Several FP assay conditions were optimized. First, the HEG1 probe engagement of KRIT1 was examined and its interaction was determined to be rapid equilibrium, thus any observed time dependance in response when an inhibitor displaces the probe is the result of inhibitor exchange kinetics and not that of the probe. Next, the affinity of KRIT1 for the probe (Kd) was examined by following the change in polarization signal as a function of a matrix of five probe concentrations and four KRIT1 concentrations (Figure S1B ). A global fit of equation 3 to polarization responses of the inhibitor vs KRIT1 concentration […]
even after 7 hours of incubation. For practical purposes, we have chosen 4 hours as our standard incubation time since it appeared that most of the inhibition has been reached at this time point. The kinetic characterization of HNA as a HEG1- KRIT1 inhibitor will be discussed in greater detail in the kinetic section […]
values to those obtained from the flow cytometry assay. Finally, to assess the robustness of the FP assay, […]
a robust assay) representing an excellent assay with clear differences between positive and negative controls.2 Evaluation of HEG1-KRIT1 inhibitors prior to the optimization of the FP assay were done using flow cytometry, while subsequent compounds were evaluated using the FP assay. All subsequent assay plates included HNA as comparison and control.
Figure S1. Optimization of fluorescence polarization (FP) assay.
HEG1-KRIT1 inhibition. (B) Optimization of KRIT1 protein and Cy5 -HEG1 probe concentrations. Dose-response curve of HNA obtained via fluorescence polarization (C) and flow cytometry (D) assays show […]
All assays were tested in technical duplicates or triplicates in at least 2 different

Data set [2] can be described thus: HEK293 cytotoxicity, resazurin cell viability assay. The format is cell-based. As to conditions: human, HEK293 cells, means ± SD, n = 3. As to the method:
Maintenance of HEK293 Cells. HEK293 cell lines (American Type Culture Collection (ATCC)) were cultured in Dulbecco's Modified Eagle Medium (DMEM, Invitrogen) supplemented with 10% heat-inactivated fetal bovine serum (FBS, Gibco) and penicillin-streptomycin (1%). Cells were kept at 37 °C and 5% CO2, and were passaged every 72 hours.
Resazurin Cell Viability Assay. The cytotoxicity in HEK293 cells were determined using a resazurin cell viability assay. Test compounds in DMSO were diluted to 100x desired final assay concentration (maximum concentration of 100 µM) in eight-point dose response. 1 µL of test compounds were plated in a 96-well clear bottom tissue culture microplate. 49 µL of cell culture media was added to each well. Cells were diluted to 4 x 10^5 cells/mL, and 50 µL of this cell suspension was seeded to each well for a total of 2 x 10^4 cells/well. The assay plate was kept at 37 °C and 5% CO 2 for either 4 or 48 hours. At the end of the incubation time, 20 µL of 0.5 mM resazurin sodium salt (Alfa Aesar) solution in PBS was added to each well. The assay plates were incubated further at 37 °C for 2 hours. Fluorescence was measured at 531 nm and 595 nm excitation and emission wavelengths, respectively, using a 2104 EnVision® multilabel plate reader. CC50 values were obtained using sigmoidal curved generated with Prism GraphPad (San Diego, CA). SD values are reported as the standard deviation of the CC50 values of 3 biological replicates. All

The test system of another data set is KLF4. In words: KLF4 gene expression in HUVECs (RT-qPCR). The format is cell-based, Human. As to conditions: HUVEC, 4-h incubation, relative to inactive control (2-hydroxy-1-naphthoic acid), 10-50 µM. The protocol:
(§1) Finally, to confirm target engagement in cell-based conditions, selected HNA derivatives (i.e., 2, 3, and 5) were tested in a functional assay that specifically looks at the downstream effects of inhibiting the interaction between HEG1 and KRIT1, using qPCR. […] Here, the ability of compound 2 and HNA derivatives 3 and 5 to upregulate the same transcription factors in HUVEC after 4 h was measured.
(§2) PCR experiments in endothelial cells
(§3) Cell Culture. Human umbilical vein endothelial cells (HUVECs, Lonza) from passages 5 to 7 were grown on fibronectin‐coated 6-well plates (Corning) in complete EGM‐2 media (Lonza). HNA compounds 2, 3 and 5 were used from stocks of 10 mM in DMSO, which were placed on a rotating block at room temperature for 30 min before being diluted for use in cell culture. Compounds were used at the concentrations indicated (10-50µM) in HUVEC medium and added to cell culture wells for 4 hours. Control cells were treated with the same concentration of either DMSO (vehicle) or the non-active compound V for the same duration. Cells were maintained in a humidified incubator at 37°C and 5% CO2.
(§4) RT-qPCR. HUVECs (Lonza) using TRIzol reagent (Thermo Fisher Scientific) and the Quick-RNA MiniPrep Kit (Zymo Research) according to the manufacturer’s instructions. cDNA was transcribed from a total of 1 µg RNA per sample using qScript™ cDNA SuperMix (QuantaBio) according to the manufacturer’s protocol. KAPA SYBR FAST qPCR master mix (Roche) was used on a CFX Connect Real-Time PCR Detection System (BioRad) to determine the relative levels of human gene trascripts. The following primer sets were used: KLF2 (forward) AGACCACGATCCTCCTTGA and (reverse) […]
(§5) […]; KLF4, (forward) […] and (reverse)
(§6) ; and GAPDH (forward) […] and
(§7) (reverse) […] used as internal control. The 2−ΔΔCT method was used to analyze relative changes between vehicle control and test compounds for each data set.

For the next data set, the system named is KLF2. Kind of data set: KLF2 gene expression in HUVECs (RT-qPCR). The data set is classed as cell-based, Human. As to conditions: HUVEC, 4-h incubation, relative to inactive control (2-hydroxy-1-naphthoic acid), 10-50 µM. The protocol: as §1, §2, §3, §4, §5, §6, §7

In data set [1], `O=Cc1c(O)ccc2cc(-c3ccsc3)ccc12` [Compound 15] yielded a pKa of 7.75 ± 0.08. Also, on HEG1-KRIT1 PPI, the IC50 worked out at 1180 ± 390 nM, the “HEG1-KRIT1 PPI Assay kon” value is 60.3 ± 7.5 M⁻¹ s⁻¹, the dissociation rate constant (koff) was 5e-05 s⁻¹ and the Ki stood at 830 ± 200 nM. In data set [2], the cytotoxic concentration (CC50) at 48 h came out at 38400 ± 6100 nM.
For `O=Cc1c(O)ccc2cc(OC(F)F)ccc12` [Compound 10], in data set [1], the pKa was determined as 6.95 ± 0.12. Further, at HEG1-KRIT1 PPI, the IC50 was found to be 2210 ± 680 nM, the “HEG1-KRIT1 PPI Assay kon” value worked out at 29.7 ± 2.5 M⁻¹ s⁻¹, the koff was 3.08e-05 s⁻¹ and the Ki amounted to 1030 ± 250 nM. Moreover, the cytotoxic concentration (CC50) at 48 h in data set [2] is > 100000 nM.
Compound `C=CCc1ccc2c(C=O)c(O)ccc2c1` [Compound 7] showed a pKa in data set [1] of 7.17 ± 0.09. At HEG1-KRIT1 PPI, the IC50 was 1220 ± 430 nM, the “HEG1-KRIT1 PPI Assay kon” value was 50.8 ± 5 M⁻¹ s⁻¹, the off-rate (koff) was 3.19e-05 s⁻¹ and the Ki amounted to 630 ± 160 nM. In data set [2], this compound came in with a CC50 at 48 h of 33900 ± 5400 nM.
`O=Cc1c(O)ccc2cc(Cl)ccc12` [Compound 8] came in with a pKa in data set [1] of 7.3 ± 0.06. At HEG1-KRIT1 PPI, 1830 ± 820 nM corresponded to half-maximal inhibition (IC50), the “HEG1-KRIT1 PPI Assay kon” value amounted to 35.6 ± 5 M⁻¹ s⁻¹, the koff is 2.97e-05 s⁻¹ and the Ki worked out at 840 ± 330 nM. Also, in data set [2], the CC50 at 48 h is ~100000 nM.
`C#Cc1ccc2c(C=O)c(O)ccc2c1` [Compound 3] displayed a pKa in data set [1] of 6.81 ± 0.05. Further, at HEG1-KRIT1 PPI, the midpoint of inhibition, the IC50, lay at 650 ± 120 nM; the “HEG1-KRIT1 PPI Assay kon” value was 179 ± 26.1 M⁻¹ s⁻¹; the koff is 0.000118 s⁻¹; the Ki came to 660 ± 170 nM. Also, in data set [2], the 50% cytotoxic concentration (CC50) at 48 h is > 100000 nM. Further, the “KLF4 mRNA expression” value in the data set with KLF4 is “significant elevations”. Moreover, the “KLF2 mRNA expression” value with KLF2 is “significant elevations”.
Compound `O=Cc1c(O)ccc2cc(-c3ccccc3)ccc12` [Compound 13] showed a pKa in data set [1] of 6.76 ± 0.1. In addition, on HEG1-KRIT1 PPI, the midpoint of inhibition, the IC50, lay at 790 ± 240 nM; the “HEG1-KRIT1 PPI Assay kon” value came to 112 ± 23.9 M⁻¹ s⁻¹; the koff is 7.28e-05 s⁻¹; the Ki is 650 ± 240 nM. Also, in data set [2], the CC50 at 48 h came out at 43500 ± 9400 nM.
As for `O=Cc1c(O)ccc2ccc(-c3cccs3)cc12` [Compound 16], on HEG1-KRIT1 PPI, it took 240 ± 90 nM to reach half-maximal inhibition (IC50), the “HEG1-KRIT1 PPI Assay kon” value worked out at 232 ± 40.8 M⁻¹ s⁻¹, the off-rate constant (koff) is 7.28e-05 s⁻¹ and the Ki came to 310 ± 90 nM. This compound gave a CC50 at 48 h in data set [2] of 31400 ± 4200 nM.
`O=Cc1c(O)ccc2cc(-c3ccco3)ccc12` [Compound 5]: the pKa in data set [1] was 8.08 ± 0.08. Moreover, at HEG1-KRIT1 PPI, it took 690 ± 110 nM to reach half-maximal inhibition (IC50), the “HEG1-KRIT1 PPI Assay kon” value was determined as 108 ± 20.8 M⁻¹ s⁻¹, the koff is 8.81e-05 s⁻¹ and the Ki is 820 ± 250 nM. Moreover, half-maximal cytotoxicity in data set [2] (CC50 at 48 h) was put at 37100 ± 5200 nM. In the data set on KLF4, the “KLF4 mRNA expression” value is listed as “significant elevations”. Besides, in the data set with KLF2, the “KLF2 mRNA expression” value was “significant elevations”.
